The results in this text go back to ChEMBL document CHEMBL4414608, “Secophragmalin-Type Limonoids from Trichilia connaroides: Isolation, Semisynthesis, and Their Cytotoxic Activities” (J Nat Prod, 2019).

pIC50: −log10 of the molar value.

The test system of assay [1] is DU-145. The assay can be described thus: Induction of apoptosis in human DU145 cells assessed as early apoptotic cells at 7 uM measured after 24 hrs by Annexin-V/FITC and propidium iodide staining based flow cytometry (reference value: 0.25 %). It counts as functional. In general terms: In flow cytometry, cells or beads pass a laser one at a time.
Assay [2] relates to DU-145. In words: Cytotoxicity against human DU145 cells assessed as cell growth inhibition measured after 24 hrs by MTT assay. Particulars: DU-145, 24 h. Format: functional, cell-based. (Tetrazolium dyes change colour on reduction, which living cells bring about.)
For assay [3], the system named is DU-145. The assay can be described thus: Cell cycle arrest in human DU145 cells assessed as accumulation at G0/G1 phase at 4.2 uM measured after 24 hrs by RNase A/propidium iodide staining based flow cytometry analysis (reference value: 51.75 %). Format: functional.
For assay [4], the system named is SK-OV-3. The assay can be described thus: Cytotoxicity against human SKOV3 cells assessed as cell growth inhibition measured after 24 hrs by MTT assay. It counts as functional, cell-based. Particulars: SK-OV-3, 24 h.
Assay [5] has as its system HeLa. The assay can be described thus: Cytotoxicity against human HeLa cells assessed as cell growth inhibition measured after 24 hrs by MTT assay. Format: functional, cell-based.
Assay [6] has as its system DU-145. The assay can be described thus: Induction of apoptosis in human DU145 cells assessed as late apoptotic cells at 7 uM measured after 24 hrs by Annexin-V/FITC and propidium iodide staining based flow cytometry (reference value: 1.49 %). Format: functional.
The subject of assay [7] is DU-145. In words: Induction of apoptosis in human DU145 cells assessed as necrotic cells at 4.2 uM measured after 24 hrs by Annexin-V/FITC and propidium iodide staining based flow cytometry (reference value: 2.64 %). It counts as functional.
Assay [8] concerns A549. In words: Cytotoxicity against human A549 cells assessed as cell growth inhibition measured after 24 hrs by MTT assay. Format: functional, cell-based. Particulars: A549, 24 h.
Assay [9] concerns COLO 205. In words: Cytotoxicity against human COLO205 cells assessed as cell growth inhibition measured after 24 hrs by MTT assay. Format: functional, cell-based. Particulars: COLO 205, 24 h.
The subject of assay [10] is DU-145. In words: Induction of apoptosis in human DU145 cells assessed as live cells at 7 uM measured after 24 hrs by Annexin-V/FITC and propidium iodide staining based flow cytometry (reference value: 95.62 %). It counts as functional.
Assay [11] deals with DU-145. The assay can be described thus: Induction of apoptosis in human DU145 cells assessed as late apoptotic cells at 4.2 uM measured after 24 hrs by Annexin-V/FITC and propidium iodide staining based flow cytometry (reference value: 1.49 %). It counts as functional.
Assay [12] has as its system DU-145. The assay can be described thus: Induction of apoptosis in human DU145 cells assessed as early apoptotic cells at 4.2 uM measured after 24 hrs by Annexin-V/FITC and propidium iodide staining based flow cytometry (reference value: 0.25 %). It counts as functional.
Assay [13] has as its system DU-145. In words: Induction of apoptosis in human DU145 cells assessed as necrotic cells at 7 uM measured after 24 hrs by Annexin-V/FITC and propidium iodide staining based flow cytometry (reference value: 2.64 %). It counts as functional.
Assay [14] deals with DU-145. The assay can be described thus: Induction of apoptosis in human DU145 cells assessed as live cells at 4.2 uM measured after 24 hrs by Annexin-V/FITC and propidium iodide staining based flow cytometry (reference value: 95.62 %). It counts as functional.
Assay [15] deals with DU-145. The assay can be described thus: Induction of apoptosis in human DU145 cells assessed as increase in total apoptotic cells measured after 24 hrs by Annexin-V/FITC and propidium iodide staining based flow cytometry. Format: functional, cell-based.
Assay [16] deals with DU-145. The assay can be described thus: Cell cycle arrest in human DU145 cells assessed as accumulation at G0/G1 phase at 5.2 uM measured after 24 hrs by RNase A/propidium iodide staining based flow cytometry analysis (reference value: 51.75 %). Format: functional.
For assay [17], the system named is DU-145. The assay can be described thus: Induction of apoptosis in human DU145 cells assessed as early apoptotic cells at 8 uM measured after 24 hrs by Annexin-V/FITC and propidium iodide staining based flow cytometry (reference value: 0.25 %). Format: functional.
The test system of assay [18] is DU-145. The assay can be described thus: Induction of apoptosis in human DU145 cells assessed as necrotic cells at 8 uM measured after 24 hrs by Annexin-V/FITC and propidium iodide staining based flow cytometry (reference value: 2.64 %). Format: functional.
Assay [19] concerns DU-145. The assay can be described thus: Induction of apoptosis in human DU145 cells assessed as necrotic cells at 5.2 uM measured after 24 hrs by Annexin-V/FITC and propidium iodide staining based flow cytometry (reference value: 2.64 %). Format: functional.
Assay [20] concerns DU-145. The assay can be described thus: Induction of apoptosis in human DU145 cells assessed as late apoptotic cells at 5.2 uM measured after 24 hrs by Annexin-V/FITC and propidium iodide staining based flow cytometry (reference value: 1.49 %). Format: functional.
For assay [21], the system named is DU-145. The assay can be described thus: Induction of apoptosis in human DU145 cells assessed as early apoptotic cells at 5.2 uM measured after 24 hrs by Annexin-V/FITC and propidium iodide staining based flow cytometry (reference value: 0.25 %). Format: functional.
The test system of assay [22] is DU-145. In words: Induction of apoptosis in human DU145 cells assessed as late apoptotic cells at 8 uM measured after 24 hrs by Annexin-V/FITC and propidium iodide staining based flow cytometry (reference value: 1.49 %). Format: functional.
Assay [23] relates to DU-145. The assay can be described thus: Induction of apoptosis in human DU145 cells assessed as live cells at 8 uM measured after 24 hrs by Annexin-V/FITC and propidium iodide staining based flow cytometry (reference value: 95.62 %). Format: functional.
In assay [24] the test system is DU-145. In words: Induction of apoptosis in human DU145 cells assessed as live cells at 5.2 uM measured after 24 hrs by Annexin-V/FITC and propidium iodide staining based flow cytometry (reference value: 95.62 %). It counts as functional.

Consider `C/C=C(\C)C(=O)O[C@@H]1[C@]2(OC(=O)CCCC)C=C3C4=CC(=O)O[C@@H](c5ccoc5)[C@]4(C)CC[C@@H]3[C@@]3(C)[C@H](C[C@]1(C)[C@H]3[C@@H](OC(=O)CCCC)C(=O)OC)O2`, for which the Activity in assay [1] was determined as 0.92%; in assay [3], 53.27%; in assay [6], 5.73%; in assay [7], 2.45%; in assay [10], 89.44%; in [11], 3.39%. The Activity in [12] is 0.86%; in assay [13], 3.91%; in [14], 93.3%; in assay [15] it was “Dose-dependent effect”. In addition, the pIC50 was 5.38 in assay [2]; below 4.00 in assay [4]; below 4.00 in assay [5]; 5.26 in assay [8]; below 4.00 in assay [9].

With `C/C=C(\C)C(=O)O[C@@H]1[C@]2(OC(=O)CCCC)C=C3C4=CC(=O)O[C@@H](c5ccoc5)[C@]4(C)CC[C@@H]3[C@@]3(C)[C@H](C[C@]1(C)[C@H]3[C@@H](O)C(=O)OC)O2`, the pIC50 in assay [2] is 5.28; in assay [4], 4.86; in assay [5] it was below 4.00; in [8] it was 5.03; in assay [9], 5.40. Besides, the Activity in assay [16] was 42.93%; in [17], 1.39%; in [18], 5.11%; in [19] it was 4.46%; in assay [20], 10.35%; in assay [21], 1.74%. For the same compound, the Activity in assay [22] stood at 8.11%; in [23], 85.39%; in assay [24], 83.45%.

In general, pIC50 refers to the IC50 on a negative log10 scale, so that one unit is a factor of ten.
